“Also recorded” adds a separate entry of the source.
Assays:
[1] = system: patients (allergic reaction); assay: Anesthesia allergy test before the Neuroquiescence session
[2] = system: seizure and Grand mal seizure; assay: Midazolam IV for termination of seizure; assay type: in vivo, human; conditions: IV 0.2 mg/kg (Maximum 10 mg)
[3] = Absorption of Midazolam administered by IV
[4] = system: children with seizures and agitated bioelectrical brain activity; design: species or system human; conditions: in vivo
[5] = system: children with Epilepsy (seizures, neuronal agitation noise on EEG); assay: Neuroquiescence protocol (Dobutamine preparation plus sustained sedation) in children with Epilepsy, hospital case series; assay type: in vivo, human
[6] = system: patients with seizures (Epilepsy); assay: Use of Dobutamine in seizure patients before the sedation session (adults); assay type: in vivo, human
Text: We alternate weeks between the Neurokinin-2 (Nk2) versus the Dobutamine Infusion (Dob). We are limited to four doses of Neurokinin 2, so we distribute them among the Dobutamine doses to maximize the Neurokinin-2 counterinflammation. We use no Dobutamine on the day before or after the day of Neurokinin-2.
The traditional “intractable” Epilepsy concept is overcome by use of Dobutamine, which is about cerebrovascular bloodflow, not about suppression of seizures. Dobutamine outperforms antiseizure medications because it addresses the true root-cause of seizures.

Cc1ncc2n1-c1ccc(Cl)cc1C(c1ccccc1F)=NC2 [Midazolam]
patients allergic in allergy test [1]: approximately 5% | termination of frequency of seizure and Grand mal seizure [2]: effective | absorption [3]: well absorbed | EEG monitoring and Brainscans [4]: became normal | symptoms of seizures and agitated bioelectrical brain activity [4]: resolved | symptoms of seizures and bioelectrical brain activity after Neuroquiescence [4]: partial improvement; also recorded: resolved

CC(CCc1ccc(O)cc1)NCCc1ccc(O)c(O)c1 (stereo not drawn) [Dobutamine]
children having no neuronal agitation noise, never returns ([5]; after week-six Neuroquiescence sedation session, Dobutamine continued): over 95% | children with no seizures but neuronal agitation noise still present ([5]; weeks two through five, Pre-Neuroquiescence preparation on Dobutamine, no antiseizure medication): about 80% | seizure status of adults previously taking multiple antiseizure medications ([6]; intravenous Dobutamine, before sedation session): become seizure free | performance versus antiseizure medication ([6]; neuronal agitation still present during weeks of microvascular preparation): consistently outperformed their antiseizure medication | time to seizure-free ([6]; one adult with unmanageable morning seizures for fifteen years): seizure-free in less than one month | neuronal agitation on EEG ([6]; same adult, a few more months, all antiseizure medications removed): no neuronal agitation measurable at EEG sensitivities

Source: patent publication US11446262B2, “Neuroquiescence—a treatment for neurodevelopmental and neurodegenerative bioelectrical dysregulation and demyelination” (priority 2018, dated 2022)
